{
  "source": "patent US20260014130A1",
  "about": "“FORMULATIONS OF CAPSID INHIBITOR” (Gilead Sciences, Inc., priority 2024, published 2026)",
  "key": {"[1]": {"system": "HIV", "conditions": "twice-yearly SC 927 mg (two 1.5 mL injections of 309 mg/mL), oral loading 600 mg days 1 and 2; cited from earlier work"}, "[2]": {"system": "HIV-1", "assay": "In vitro protein binding-adjusted 95% effective concentration (paEC95) and inhibitory quotient", "type": "cell-based"}, "[3]": {"conditions": "cited from earlier work"}, "[4]": {"conditions": "in vivo, sc; cited from earlier work"}},
  "data": [
    {"smiles": "CC(C)(C#Cc1ccc(-c2ccc(Cl)c3c(NS(C)(=O)=O)nn(CC(F)(F)F)c23)c([C@H](Cc2cc(F)cc(F)c2)NC(=O)Cn2nc(C(F)(F)F)c3c2C(F)(F)[C@@H]2C[C@H]32)n1)S(C)(=O)=O", "note": "[lenacapavir]", "values": [
      {"measurement": "efficacy in cisgender men and gender-diverse people", "setting": "[1]", "result": 99.9, "unit": "%"},
      {"measurement": "efficacy in cisgender women", "setting": "[1]", "result": 100, "unit": "%"},
      {"measurement": "in vitro paEC95 (protein binding-adjusted 95% effective concentration)", "setting": "[2]", "result": 3.87, "unit": "ng/mL"},
      {"measurement": "inhibitory quotient-4 (IQ4; 4-fold in-vitro protein binding-adjusted 95% effective concentration)", "setting": "[2]; plasma concentration threshold", "result": 15.5, "unit": "ng/mL"},
      {"measurement": "systemic lenacapavir exposures relative to those achieved with the intramuscular formulations", "setting": "[3]; observed previously, well tolerated", "result": "approximately 3 fold"},
      {"measurement": "mean Cmax", "setting": "[3]; supratherapeutic total dose of 9600 mg of oral lenacapavir", "result": 1070.4, "unit": "ng/mL"},
      {"measurement": "highest observed mean concentration", "setting": "[4]", "result": 72.1, "unit": "ng/mL"}
    ]}
  ]
}
